Data reported in patent US12264163B2, “Compounds and methods for treating fibrotic pathologies” (Mayo Foundation for Medical Education and Research, priority 2019, dated 2025).

Assays:
[1] = system: YAP/TAZ; test: YAP/TAZ nuclear localization in IPF patient-derived lung fibroblasts treated with dopaminergic agonists; format: cell-based, human; conditions: 10 μM, 2 hours
Method in brief: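 Fibroblasts from IPF patients (N=4 patient samples) were exposed to dopaminergic agonists at 10 μM for 2 h before fixation. Cells were immunostained for YAP/TAZ with DAPI counterstain and imaged at 4×. Percent nuclear YAP/TAZ localization was quantified by automated image analysis.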

[2] = system: lung fibroblasts; test: Fibroblast proliferation (counting DAPI nuclei); format: cell-based, human
Method: IPF fibroblast and Normal lung fibroblast co-culture proliferation. Cell are prelabelled with fluorescent dyes (red and green) and then cocultured at a ratio of about 1:1 in 96 well plates. Cell counts are determined every 24 hours and plotted as a ratio of IPF/HLF cells. In the control wells the IPF cells outgrow and take over the well. N=2.
Proliferation of lung fibroblasts (IMR-90 cells) measured for 4 days in the presence of GPCR agonists ET-1 (100 nM) and LPA (10 μM)+/−10 μM DHX. Cells were fixed and counted with DAPI at the end of each day. N=3 technical triplicates.
Adult lung fibroblasts plated into 96-well plates, stimulated with 2 ng/mL TGFβ and compounds at the indicated concentration. Proliferation determined by fixing and counting DAPI nuclei using a Cytation 5. N=2.
Fibroblasts were stimulated with 2 ng/mL TGFβ and treated with compound 1 (MS-9) at the indicated concentration (0.1 μM, 1 μM, and 10 μM). Proliferation determined by fixing and counting DAPI nuclei using a Cytation.

[3] = system: IPF patient derived fibroblasts; test: Traction force microscopy of IPF patient-derived fibroblasts; format: cell-based, human; conditions: IPF fibroblasts on 6.4 kPa matrices
Method: Traction Force Microscopy: Traction analysis was conducted as previously described. […] IPF patient derived fibroblasts were plated on the gels overnight and treated as indicated before traction force measurements. Images of gel surface-conjugated fluorescent beads were acquired for each cell before and after trypsinization using a Nikon ECLIPSE Ti microscope at ×10 magnification. Traction forces were estimated by measuring bead displacement fields and computing corresponding traction fields using TractionsForAll (freely distributed program that calculates 2-D tractions exerted by an adherent cell on its substrate).

[4] = system: normal healthy mice; conditions: mouse, in vivo
Method: Bleomycin model of pulmonary fibrosis was used to test the efficacy of DHX in vivo in experimental fibrosis. Mice were administered bleomycin intratracheally at Day 0. On Day 10 injury and inflammation typically subside and fibrosis is ongoing. At Day 10 mice were randomized into two groups, one receiving DHX (5 mg/kg once daily i.n.) and the other, vehicle control. […] At day 24 the mice were sacrificed and compared using histology, hydroxyproline and qPCR. […] To assess whether DHX adversely effects lung remodeling in the absence of fibrosis, we also exposed control mice to DHX following an identical time course and route of exposure.

[5] = system: hepatic stellate cells; test: TGFβ-mediated hepatic stellate cell activation, western blot of αSMA and fibronectin; format: cell-based, human; conditions: HSCs, TGFβ 48 hours, DHX 10 μM
Method: HSCs were stimulated with TGFβ for 48 hours+/−DHX (10 μM) prior to total protein isolation and western blot analysis of αSMA and Fibronectin. N=3 (***p<0.001, **p<0.01, *p<0.05 vs. Control+TGFβ).
Western Blotting: Cells were plated in EMEM containing 10% FBS overnight. Media was exchanged with EMEM containing 0.1% FBS for 24 hours. Prior to protein isolation cells were treated with the indicated concentration of compounds for the indicated time. Total protein was isolated using RIPA buffer (pH 8.0) containing Pierce Phosphatase Inhibitor (Thermo) and Halt Protease Inhibitor Cocktail (Thermo). Lysate total protein concentration was determined using Pierce BCA Protein Assay Kit (Thermo) and samples were run on a 10% polyacrylamide gel. Blots were incubated overnight with primary antibodies: pYAP (Ser 127, Cell Signaling D9W21), YAP/TAZ (Cell Signaling D24E4), GAPDH (Cell Signaling 14C10), HSC70 (Santa Cruz sc-7298), αSMA (Abcam ab5694), and fibronectin (Santa Cruz sc-9068) diluted 1:1000 in Li-Cor Odyssey Blocking Buffer. Blots were washed with TBS-Tween before 60 minute incubation with IR-dye-conjugated secondary antibodies (Li-Cor) diluted 1:10,000. Plates were imaged via a Li-Cor OdysseyXL system with quantification performed via densitometry. […]

## Oc1cc2c(cc1O)[C@H]1c3ccccc3CN[C@@H]1CC2 (racemic) [Dihydrexidine]
[1]; IPF-1 patient fibroblasts
  Nuclear localization (% of total cells): 13.22 % of total cells
[1]; IPF-2 patient fibroblasts
  Nuclear localization (% of total cells): 21.79 % of total cells
[1]; IPF-3 patient fibroblasts
  Nuclear localization (% of total cells): 27.63 % of total cells
[1]; IPF-4 patient fibroblasts
  Nuclear localization (% of total cells): 21.08 % of total cells
[2]; 4 days, ET-1, LPA, TGFβ or CTGF +/− 10 μM DHX
  proliferation of lung fibroblasts: blocks proliferation
[2]; co-culture about 1:1, ratio of IPF/HLF cells every 24 hours
  IPF fibroblast and normal lung fibroblast co-culture proliferation: selectively slows proliferation in IPF fibroblasts
[3]
  contractile forces (traction force microscopy): significantly and dose-dependently reduced the contractile forces
[4]
  body weight: did not alter body weight
  expression of Ctgf, Col1a1, Acta2, and Fn1: did not alter expression of Ctgf, Col1a1, Acta2, and Fn1
  lung collagen deposition: did not alter lung collagen deposition
  lung histology: did not alter lung histology
[5]
  TGFβ-mediated HSC expression of SMA and FN protein (western blotting): significant reversal of both
